In one data set the target is CB2 cannabinoid receptor (Homo sapiens, UniProt P34972). Put plainly: CB2 receptor binding affinity. The protocol:
(§1) Some disclosed compounds were tested for CB1 and CB2 receptors binding affinity (Table 5). As used herein “binding affinity” is represented by the Ki value. The Ki value is the affinity constant and describes the affinity of the compound for the receptor. […] A detailed description of the methods used to test “binding affinity” of compounds is given in Makriyannis, et al., US 2007, 0135388 and in Papahatjis, et al. J. Med. Chem. (2007) 4048, the content of each of which is hereby incorporated by reference.

The target in a further data set is CB1 cannabinoid receptor (Homo sapiens, UniProt P21554). The data set can be described thus: CB1 receptor binding affinity. As to the method:
as §1

The test system of the next data set is CB1-KO-HUVEC cells. Put plainly: MMP (matrix metalloproteinase) activity in CB1-KO-HUVEC. It is filed as cell-based, human. The following applies: FIGS. 7 and 8, read-out: EC50 for induction of MMP activity. From the text:
For aspects disclosed herein, promotion of angiogenic responses under in vitro and ex vivo conditions as well as increasing in MMP (matrix metalloproteinase) activity, correlates well with the ability of anandamide and its synthetic analog (R)-methanandamide to bind to and modulate the putative “non CB1/non CB2 anandamide receptor”. Thus, the compounds described herein where tested using in vitro angiogenesis assays (cord formation by endothelial cells in extracellular matrix mimicking matrigel), ex vivo angiogenesis assay (sprouting or blood capillary formation under ex vivo conditions) as well as for MMP activity in CB1 receptor knock out human umbilical vein endothelial cells (HUVEC) (CB1-KO-HUVEC).
Some disclosed compounds were tested using in vitro angiogenesis assays (cord formation by endothelial cells in extracellular matrix mimicking matrigel, Table 4), ex vivo angiogenesis assay (sprouting or blood capillary formation under ex vivo conditions, Table 4) as well as for MMP (matrix metalloproteinase) activity in CB1 receptor knock out human umbilical vein endothelial cells (HUVEC) (CB1-KO-HUVEC, Figures A and B). Stimulation of angiogenic responses under in vitro and ex vivo conditions as well as increasing in MMP activity, correlates well with the ability of the compound to bind to and modulate the putative “non CB1/non CB2 anandamide receptor”. […] A detailed description of the angiogenesis and MMP activity assays is given in Mukhopadhyay (US 2007, 0244200, and Balas, et al., J. Med. Chem. (2009) ASAP the content of each of which is hereby incorporated by reference.

Each structure is given as a SMILES string. Read-outs that look alike come from different tables or passages of the source.

Results on 28 molecules are retold here after patent US20120172339A1, “ANGIOGENIC RESORCINOL DERIVATIVES” (Northeastern University, priority 2009, published 2012).

As a reminder, the Ki is the dissociation constant of the complex between target and ligand, obtained from inhibition or displacement. As a reminder, the melting point is the temperature of the solid-liquid transition. For orientation: EC50 means the concentration needed to bring the measured effect to its halfway point.

Sequence of CB2 cannabinoid receptor (P34972 whole entry): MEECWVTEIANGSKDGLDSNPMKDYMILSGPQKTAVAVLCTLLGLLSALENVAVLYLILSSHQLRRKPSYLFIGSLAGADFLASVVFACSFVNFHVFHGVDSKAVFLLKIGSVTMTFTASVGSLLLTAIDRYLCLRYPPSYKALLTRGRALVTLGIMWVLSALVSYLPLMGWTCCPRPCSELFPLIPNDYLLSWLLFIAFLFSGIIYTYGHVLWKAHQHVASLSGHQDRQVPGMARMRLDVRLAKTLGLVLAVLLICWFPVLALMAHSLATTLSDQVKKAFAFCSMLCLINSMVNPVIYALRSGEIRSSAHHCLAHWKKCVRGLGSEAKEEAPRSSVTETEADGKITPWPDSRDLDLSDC
Sequence of CB1 cannabinoid receptor (P21554 whole entry): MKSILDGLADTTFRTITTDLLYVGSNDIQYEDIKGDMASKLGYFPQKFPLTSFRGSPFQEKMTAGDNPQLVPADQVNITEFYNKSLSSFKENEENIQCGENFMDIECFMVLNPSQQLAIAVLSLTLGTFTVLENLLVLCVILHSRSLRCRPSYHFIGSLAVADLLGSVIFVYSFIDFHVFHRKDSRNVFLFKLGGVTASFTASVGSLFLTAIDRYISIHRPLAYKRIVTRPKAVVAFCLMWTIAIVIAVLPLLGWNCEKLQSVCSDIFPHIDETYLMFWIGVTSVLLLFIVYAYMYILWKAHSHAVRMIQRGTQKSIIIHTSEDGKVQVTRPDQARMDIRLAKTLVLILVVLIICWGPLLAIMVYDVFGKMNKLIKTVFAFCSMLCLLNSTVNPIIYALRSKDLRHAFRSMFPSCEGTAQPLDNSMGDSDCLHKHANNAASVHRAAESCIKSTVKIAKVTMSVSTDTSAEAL

Regarding `C=C(C)[C@@H]1CCC(C)=C[C@H]1c1c(O)cc(I)cc1O` (relative stereo) [Compound 3.11, (−)-2-[3-3,4-trans-p-Menthadien-(1,8)-yl]-5-iodoresorcinol], the melting point lay in the range of 128 to 130 °C. For the same molecule, the Ki on CB2 cannabinoid receptor (read-out: CB2 Receptor Ki) came out at 2.19 µM. Further, on CB1 cannabinoid receptor (read-out: CB1 Receptor Ki), the inhibition constant Ki is 5.13 µM.

`[2H]C([2H])([2H])CCc1cc(O)cc(O)c1[C@@H]1C=C(C)CC[C@H]1C(=C)C` (relative stereo) [Compound 4.5, (−)-4-[3-3,4-trans-p-Menthadien-(1,8)-yl]-5-[3′-(^2H3)-propyl]resorcinol]: the figures for the Ki on CB2 cannabinoid receptor (read-out: CB2 Receptor Ki) and on CB1 cannabinoid receptor (read-out: CB1 Receptor Ki) were 19 µM and > 20 µM, respectively.

Regarding `C=C(C)[C@@H]1CCC(C)=C[C@H]1c1c(O)cc(/C=C\CCCCC)cc1O` [Compound 3.6, (−)-2-[3-3,4-trans-p-Menthadien-(1,8)-yl]-5-(1,2-cis-hepten-1-yl)resorcinol], the EC50 in the data set on CB1-KO-HUVEC cells (Homo sapiens) is 0.05 to 0.07 µM.

For the molecule `CCCCCc1cc(O)c([C@H]2C=C(C)[C@H]3C[C@@H]2C3(C)C)c(O)c1` [Compound 8.2, (+)-2-[(1R, 4S, 5S)-2,6,6-trimethylbicyclo[3.1.1]hept-2-en-4-yl]-5-pentyl-resorcinol], in the data set with CB1-KO-HUVEC cells (Homo sapiens), the EC50 was in the range of 0.05 to 0.07 µM.

With `C=C(C)[C@@H]1CCC(C)=C[C@H]1c1c(O)cc(O)cc1I` (relative stereo) [Compound 4.11, (−)-4-[3-3,4-trans-p-Menthadien-(1,8)-yl]-5-iodoresorcinol], the Ki at CB2 cannabinoid receptor (read-out: CB2 Receptor Ki) turned out to be 10.5 µM; at CB1 cannabinoid receptor (read-out: CB1 Receptor Ki), 13.1 µM. In addition, the concentration giving a half-maximal response (EC50) with CB1-KO-HUVEC cells (Homo sapiens) was 0.05 to 0.07 µM.

For the molecule `C=C(C)[C@@H]1CCC(C)=C[C@H]1c1c(O)cc(O)cc1Br` (relative stereo) [Compound 4.10, (−)-4-[3-3,4-trans-p-Menthadien-(1,8)-yl]-5-bromoresorcinol], the inhibitory constant (Ki) on CB2 cannabinoid receptor (read-out: CB2 Receptor Ki) was determined as 13.3 µM; at CB1 cannabinoid receptor (read-out: CB1 Receptor Ki), 7.46 µM.

For `C=C(C)[C@@H]1CCC(C)=C[C@H]1c1c(O)cc(CC#N)cc1O` (relative stereo) [Compound 3.13, (−)-2-[3-3,4-trans-p-Menthadien-(1,8)-yl]-5-(cyanomethyl)resorcinol], the Ki at CB2 cannabinoid receptor (read-out: CB2 Receptor Ki) came to 4.2 µM; on CB1 cannabinoid receptor (read-out: CB1 Receptor Ki), 1.44 µM.

On to `C=C(C)[C@@H]1CCC(C)=C[C@H]1c1c(O)cc(CCCCBr)cc1O` (relative stereo) [Compound 3.16, (−)-2-[3-3,4-trans-p-Menthadien-(1,8)-yl]-5-(4-bromobutyl)resorcinol], for which the Ki is 0.059 µM on CB2 cannabinoid receptor and 0.192 µM on CB1 cannabinoid receptor.

As to `[2H]C([2H])([2H])CCc1cc(O)c([C@@H]2C=C(C)CC[C@H]2C(=C)C)c(O)c1` (relative stereo) [Compound 3.5, (−)-2-[3-3,4-trans-p-Menthadien-(1,8)-yl]-5-[3′-(^2H3)-propyl]resorcinol], the Ki worked out at 2.58 µM on CB2 cannabinoid receptor (read-out: CB2 Receptor Ki) and 8.39 µM at CB1 cannabinoid receptor (read-out: CB1 Receptor Ki).

With `C=C(C)[C@@H]1CCC(C)=C[C@H]1c1c(O)cc(O)cc1CCCCC` (relative stereo) [Compound 4.2, (−)-4-[3-3,4-trans-p-Menthadien-(1,8)-yl]-5-pentylresorcinol, reference compound], the Ki at CB2 cannabinoid receptor amounted to 9.64 µM; at CB1 cannabinoid receptor, 4.78 µM.

Turning to `CCCCCc1cc(O)cc(O)c1[C@@H]1C=C(C)[C@@H]2C[C@H]1C2(C)C` [Compound 12.2], the Ki came to 19 µM at CB2 cannabinoid receptor (read-out: CB2 Receptor Ki) and 10.1 µM at CB1 cannabinoid receptor (read-out: CB1 Receptor Ki).

On to `C=C(C)[C@@H]1CCC(C)=C[C@H]1c1c(C)cc(O)cc1O` (relative stereo) [Compound 4.1, (−)-4-[3-3,4-trans-p-Menthadien-(1,8)-yl]-5-methylresorcinol], for which the Ki at CB2 cannabinoid receptor (read-out: CB2 Receptor Ki) amounted to 31.1 µM; on CB1 cannabinoid receptor (read-out: CB1 Receptor Ki) it was 10 µM.

In turn, `C=C(C)[C@@H]1CCC(C)=C[C@H]1c1c(O)cc(O)cc1F` (relative stereo) [Compound 4.8, (−)-4-[3-3,4-trans-p-Menthadien-(1,8)-yl]-5-flouororesorcinol] yielded a melting point of 105 to 106 °C. At CB2 cannabinoid receptor (read-out: CB2 Receptor Ki), the Ki was 7.21 µM. On CB1 cannabinoid receptor (read-out: CB1 Receptor Ki), the Ki is 4.15 µM.

`C=C(C)[C@@H]1CCC(C)=C[C@H]1c1c(O)cc(CN=[N+]=[N-])cc1O` (relative stereo) [Compound 3.15, (−)-2-[3-3,4-trans-p-Menthadien-(1,8)-yl]-5-(azidomethyl)resorcinol]: the Ki at CB2 cannabinoid receptor (read-out: CB2 Receptor Ki) stood at 2.03 µM; on CB1 cannabinoid receptor (read-out: CB1 Receptor Ki), 3.56 µM. Moreover, the EC50 with CB1-KO-HUVEC cells (Homo sapiens) was in the range of 0.05 to 0.07 µM.

`C=C(C)[C@@H]1CCC(C)=C[C@H]1c1c(O)cc(C)cc1O` (relative stereo) [Compound 3.1, (−)-2-[3-3,4-trans-p-Menthadien-(1,8)-yl]-5-methylresorcinol]: the Ki at CB2 cannabinoid receptor (read-out: CB2 Receptor Ki) amounted to 47.7 µM; on CB1 cannabinoid receptor (read-out: CB1 Receptor Ki), 16.7 µM.

Take `C=C(C)[C@@H]1CCC(C)=C[C@H]1c1c(O)cc(CBr)cc1O` (relative stereo) [Compound 3.12, (−)-2-[3-3,4-trans-p-Menthadien-(1,8)-yl]-5-(bromomethyl)resorcinol]: the Ki at CB2 cannabinoid receptor (read-out: CB2 Receptor Ki) was 10.8 µM; at CB1 cannabinoid receptor (read-out: CB1 Receptor Ki), 2.2 µM.

In turn, `C=C(C)[C@@H]1CCC(C)=C[C@H]1c1c(O)cc(O)cc1CC#N` registered a melting point of 131 to 133 °C.

Consider `C=C(C)[C@@H]1CCC(C)=C[C@H]1c1c(O)cc(CCCCCCC)c([C@@H]2C=C(C)CC[C@H]2C(=C)C)c1O` (relative stereo) [Compound 5.3, 2,4-bis-[3-3,4-trans-p-Menthadien-(1,8)-yl]-5-heptylresorcinol], for which the Ki on CB2 cannabinoid receptor (read-out: CB2 Receptor Ki) and at CB1 cannabinoid receptor (read-out: CB1 Receptor Ki) was > 10 µM in each case. Further, in the data set with CB1-KO-HUVEC cells (Homo sapiens), the EC50 was 0.05 to 0.07 µM.

As to `C=C(C)[C@@H]1CCC(C)=C[C@H]1c1c(O)cc(O)cc1O` (relative stereo) [Compound 3.7, (−)-2-[3-3,4-trans-p-Menthadien-(1,8)-yl]-5-hydroxyresorcinol], the results for the inhibitory constant (Ki) on CB2 cannabinoid receptor (read-out: CB2 Receptor Ki) and at CB1 cannabinoid receptor (read-out: CB1 Receptor Ki) were 41.7 µM and 21.5 µM, respectively.

As for `C=C(C)[C@@H]1CCC(C)=C[C@H]1c1c(O)cc(O)cc1CCCCCCC` (relative stereo) [Compound 4.3, (−)-4-[3-3,4-trans-p-Menthadien-(1,8)-yl]-5-heptylresorcinol], the figures for the Ki at CB2 cannabinoid receptor and on CB1 cannabinoid receptor were 0.398 µM and 0.25 µM, respectively.

Turning to `CCCCCc1cc(O)cc(O)c1[C@H]1C=C(C)[C@H]2C[C@@H]1C2(C)C` [Compound 9.2, (+)-4-[(1R, 4S, 5S)-2,6,6-trimethylbicyclo[3.1.1]hept-2-en-4-yl]-5-pentyl-resorcinol], the Ki at CB2 cannabinoid receptor (read-out: CB2 Receptor Ki) is 4.94 µM; on CB1 cannabinoid receptor (read-out: CB1 Receptor Ki) it was 9.25 µM.

Turning to `CCCCC/C=C\C/C=C\C/C=C\C/C=C\CCCC(=O)N[C@H](C)CO` [(R)-methanandamide, reference compound], the EC50 in the data set with CB1-KO-HUVEC cells was ~0.042 µM.

Take `CCCCCc1cc(O)c([C@@H]2C=C(C)[C@@H]3C[C@H]2C3(C)C)c(O)c1` [Compound 11.2, (−)-2-[(1S, 4R, 5R)-2,6,6-trimethylbicyclo[3.1.1]hept-2-en-4-yl]-5-pentyl-resorcinol]: the Ki at CB2 cannabinoid receptor (read-out: CB2 Receptor Ki) was 0.565 µM; on CB1 cannabinoid receptor (read-out: CB1 Receptor Ki) it was 0.837 µM.

For the molecule `C=C(C)[C@@H]1CCC(C)=C[C@H]1c1c(O)cc(O)cc1CCCCBr` (relative stereo) [Compound 4.16], the Ki at CB2 cannabinoid receptor (read-out: CB2 Receptor Ki) amounted to 5.73 µM; at CB1 cannabinoid receptor (read-out: CB1 Receptor Ki), 12.5 µM.

For the molecule `C=C(C)[C@@H]1CCC(C)=C[C@H]1c1c(O)cc(O)cc1Cl` (relative stereo) [Compound 4.9, (−)-4-[3-3,4-trans-p-Menthadien-(1,8)-yl]-5-chlororesorcinol], the melting point is 101 to 103 °C. The Ki on CB2 cannabinoid receptor (read-out: CB2 Receptor Ki) is 4.97 µM. Also, the Ki at CB1 cannabinoid receptor (read-out: CB1 Receptor Ki) is 3.18 µM.

For `C=C(C)[C@@H]1CCC(C)=C[C@H]1c1c(O)cc(CC(=O)OC)cc1O` (relative stereo) [Compound 3.14, (−)-2-[3-3,4-trans-p-Menthadien-(1,8)-yl]-5-(2-methoxy-2-oxoethyl)resorcinol], the inhibitory constant (Ki) worked out at 0.62 µM on CB2 cannabinoid receptor (read-out: CB2 Receptor Ki) and 2.37 µM on CB1 cannabinoid receptor (read-out: CB1 Receptor Ki).

On to `C=C(C)[C@@H]1CCC(C)=C[C@H]1c1c(O)cc(CCCCCCC)cc1O` (relative stereo) [Compound 3.3, (−)-2-[3-3,4-trans-p-Menthadien-(1,8)-yl]-5-heptylresorcinol], for which the Ki at CB2 cannabinoid receptor was 1.42 µM; at CB1 cannabinoid receptor it was 0.651 µM.

Turning to `C=C(C)[C@@H]1CCC(C)=C[C@H]1c1c(O)cc(F)cc1O` (relative stereo) [Compound 3.8, (−)-2-[3-3,4-trans-p-Menthadien-(1,8)-yl]-5-flouororesorcinol], the Ki on CB2 cannabinoid receptor (read-out: CB2 Receptor Ki) stood at 43.4 µM; on CB1 cannabinoid receptor (read-out: CB1 Receptor Ki), 14.6 µM. Further, the concentration giving a half-maximal response (EC50) in the data set on CB1-KO-HUVEC cells (Homo sapiens) lay in the range of 0.05 to 0.07 µM.
